Test results from US20030237104A1 (priority 2002, published 2003).
Read-outs that look alike come from different tables or passages of the source.

Experiments:
non-Tg mice (CB6F1) = settings: mouse, in vivo
CB6F1-HRAS2 mice = settings: in vivo
Salmonella = settings: cited from earlier work
rasH2 mice = settings: mouse, in vivo, ip; cited from earlier work
CB6F1-Tg-rasH2 mice = settings: mouse, in vivo, ip, 75 mg/kg
[1] = CB6F1-HRAS2 and non-Tg CB6F1, mouse
[2] = CB6F1-HRAS2, mouse, sc, 15 mg/kg
[3] = CB6F1-HRAS2, mouse, ip, 60 mg/kg

## [O-][n+]1ccc(NO)c2ccccc21 [4HAQO, 4-Hydroxyaminoquinoline-1-oxide]
non-Tg mice (CB6F1)
  Malignant Tumors Non-Tg: +
  forestomach and skin papillomas: hardly observed
CB6F1-HRAS2 mice; [1]
  tumors in the exocrine portion of the pancreas: Neither the 4HAQO-treated Tg nor the non-Tg mice developed tumors
CB6F1-HRAS2 mice; mouse
  Malignant Tumors Tg: ++
  Rapid tumor response in Tg mice: +
  Tumor incidence and/or multiplicity: Tg > non-Tg
  forestomach and skin papillomas: induced
  other tumors (e.g., leukemias and thymomas): observed only in the Tg mice
Salmonella
  Genotoxicity (Salmonella): +

## O=[N+]([O-])c1cc[n+]([O-])c2ccccc12 [4NQO, 4-Nitroquinoline-1-oxide]
non-Tg mice (CB6F1)
  Malignant Tumors Non-Tg: −
non-Tg mice (CB6F1); sc, 15 mg/kg
  skin tumors: No skin tumors were observed
CB6F1-HRAS2 mice; [2]
  lung adenocarcinomas: observed only in 4NQO-treated CB6F1-HRAS2 mice
  squamous cell carcinomas of skin: observed only in 4NQO-treated CB6F1-HRAS2 mice
CB6F1-HRAS2 mice; both, CB6F1-HRAS2, mouse, sc, 15 mg/kg
  mice bearing skin papillomas: Approximately 90%
CB6F1-HRAS2 mice; mouse
  Malignant Tumors Tg: +
  Rapid tumor response in Tg mice: +
  Tumor incidence and/or multiplicity: Tg > non-Tg
CB6F1-HRAS2 mice; mouse, sc, 15 mg/kg
  incidence of lung adenoma: higher than that in corresponding non-Tg mice

## O=P1(N(CCCl)CCCl)NCCCO1 (centres unmarked) [Cyclophosphamide]
non-Tg mice (CB6F1)
  Malignant Tumors Non-Tg: −
CB6F1-HRAS2 mice; CB6F1-HRAS2, mouse
  adenocarcinomas (lung): observed only in one cyclophosphamide-treated male CB6F1-HRAS2 mouse
CB6F1-HRAS2 mice; mouse
  Malignant Tumors Tg: +
  Tumor incidence and/or multiplicity: Tg ÷ non-Tg
  incidence and multiplicity of lung adenoma: not significantly higher
  incidence of lung adenoma: not significantly different from that in corresponding non-Tg mice
  lung tumors: induced lung tumors
  tumors in other organs (bladder, mammary gland, lymphatic systems): No tumor was observed
Salmonella
  Genotoxicity (Salmonella): +

## S=C1NCCN1 [Ethylene thiourea]
non-Tg mice (CB6F1); female, CB6F1 (non-Tg)
  incidence of thyroid adenocarcinoma: 4%
  thyroid adenomas incidence: 20%
non-Tg mice (CB6F1)
  Malignant Tumors Non-Tg: +
CB6F1-HRAS2 mice; female, CB6F1-HRAS2, mouse
  incidence of thyroid adenocarcinoma: 9%
  thyroid adenomas incidence: 26%
CB6F1-HRAS2 mice; mouse
  Malignant Tumors Tg: +
  Tumor incidence and/or multiplicity: Tg ÷ non-Tg
  thyroid tumors: did not induce
Salmonella
  Genotoxicity (Salmonella): −
  Salmonella mutagenesis assay result: negative

## C[N+]([O-])=NCO [MAM, Methylazoxymethanol]
non-Tg mice (CB6F1)
  Malignant Tumors Non-Tg: −
CB6F1-HRAS2 mice; mouse
  Malignant Tumors Tg: +
  Tumor incidence and/or multiplicity: Tg > non-Tg^c
  incidence and multiplicity of lung adenoma: not significantly higher
CB6F1-HRAS2 mice; mouse, sc, 20 mg/kg
  lung adenoma incidence: similar
Salmonella
  Genotoxicity (Salmonella): +

## CN(N=O)C(N)=O [MNU, N-Methyl-N-nitrosourea]
non-Tg mice (CB6F1)
  Malignant Tumors Non-Tg: −
  forestomach papillomas: no papillomas
  skin papillomas and hyperplasias: did not induce
CB6F1-HRAS2 mice; CB6F1-HRAS2, mouse
  forestomach squamous cell carcinoma: seen only in MNU-treated CB6F1-HRAS2 mice
CB6F1-HRAS2 mice; mouse
  Malignant Tumors Tg: +
  Rapid tumor response in Tg mice: +
  Tumor incidence and/or multiplicity: Tg > non-Tg
  forestomach papillomas: high incidence
  incidence and multiplicity of lung adenoma: not significantly higher
  incidence of skin papilloma: significantly high incidence
CB6F1-HRAS2 mice; mouse, 75 mg/kg
  incidence of lymphoma: higher
rasH2 mice
  forestomach and skin papillomas: higher incidence
Salmonella
  Genotoxicity (Salmonella): +
CB6F1-Tg-rasH2 mice
  incidences of forestomach tumor and malignant lymphoma among institutions: High and consistent incidences
  incidences of tumor (squamous cell tumor in forestomach, skin, vagina; Harderian gland carcinoma; lung adenomas; malignant lymphoma): increased

## C=COC(N)=O [Vinyl carbamate]
non-Tg mice (CB6F1); CB6F1 (non-Tg), ip, 60 mg/kg
  lung adenomas incidence: > 90%
non-Tg mice (CB6F1)
  Malignant Tumors Non-Tg: +
non-Tg mice (CB6F1); ip, 60 mg/kg
  incidence of lung adenocarcinoma: much lower
  spleen hemangiosarcomas: none developed
  tumor multiplication (lung adenomas): lower
CB6F1-HRAS2 mice; [3]
  lung adenocarcinomas incidence: 50%
  lung adenomas incidence: 100%
  mice bearing spleen hemangiosarcomas: Approximately 90%
CB6F1-HRAS2 mice; [1]
  liver tumors: neither CB6F1-HRAS2 mice nor control non-Tg mice treated with these compounds developed liver tumors
CB6F1-HRAS2 mice; mouse
  Malignant Tumors Tg: ++
  Rapid tumor response in Tg mice: +
  Tumor incidence and/or multiplicity: Tg > non-Tg
Salmonella
  Genotoxicity (Salmonella): +
